Laboratory results published in US8148388B2, “2,4 (4,6) pyrimidine derivatives” (Janssen Pharmaceutica, N.V., priority 2004, dated 2012).

Tests used:
Type in all cases: biochemical
EGFR (h) = EGFR (h) (Homo sapiens, UniProt P00533); assay: EGFR human kinase assay (glass-fiber filter); conditions: test concentration of 10^−6M; for inhibition at 1 µM: read-out: C4 score (inhibition of EGFR human)
Procedure, shortened: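 Human EGFR (5-10 mU) phosphorylated 0.1 mg/ml poly(Glu, Tyr) 4:1 in 8 mM MOPS pH 7.0, 0.2 mM EDTA, 10 mM MnCl2, 10 mM MgAcetate with [γ-33P]ATP at unspecified concentration. Incubation lasted 40 minutes at room temperature, was stopped with phosphoric acid, and filter-bound 33P was counted by scintillation.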

Lck (h) = Lck (h) (Homo sapiens, UniProt P06239); assay: Lck human kinase assay (glass-fiber filter); conditions: test concentration of 10^−6M; for inhibition at 1 µM: read-out: C9 score (inhibition of Lck human)
Lck (h), sequence (P06239 whole entry): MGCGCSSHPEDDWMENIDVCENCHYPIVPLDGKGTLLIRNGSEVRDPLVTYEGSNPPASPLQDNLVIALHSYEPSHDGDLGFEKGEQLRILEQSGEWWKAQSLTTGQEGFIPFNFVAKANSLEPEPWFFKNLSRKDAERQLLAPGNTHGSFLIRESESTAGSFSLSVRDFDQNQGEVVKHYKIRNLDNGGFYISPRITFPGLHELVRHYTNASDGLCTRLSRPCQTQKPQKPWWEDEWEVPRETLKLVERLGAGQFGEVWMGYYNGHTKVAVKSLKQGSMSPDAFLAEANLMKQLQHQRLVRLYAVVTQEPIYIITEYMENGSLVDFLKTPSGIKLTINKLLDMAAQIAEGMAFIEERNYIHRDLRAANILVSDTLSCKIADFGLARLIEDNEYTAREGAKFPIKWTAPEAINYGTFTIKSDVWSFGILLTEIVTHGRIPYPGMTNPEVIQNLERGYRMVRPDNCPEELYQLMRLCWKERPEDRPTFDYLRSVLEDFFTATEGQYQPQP
Procedure, shortened: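 Kinase activity measured as transfer of (^33P) from radiolabeled MgATP to substrate, captured on P30 glass-fiber filtermat, washed in 75 mM phosphoric acid and methanol, then scintillation counted.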

GSK3B (h) = GSK3B (h) (Homo sapiens, UniProt P49841); assay: GSK3β human kinase assay (glass-fiber filter); conditions: test concentration of 10^−6M; for inhibition at 1 µM: read-out: C8 score (inhibition of GSK3β human)
GSK3B (h), sequence (P49841 whole entry): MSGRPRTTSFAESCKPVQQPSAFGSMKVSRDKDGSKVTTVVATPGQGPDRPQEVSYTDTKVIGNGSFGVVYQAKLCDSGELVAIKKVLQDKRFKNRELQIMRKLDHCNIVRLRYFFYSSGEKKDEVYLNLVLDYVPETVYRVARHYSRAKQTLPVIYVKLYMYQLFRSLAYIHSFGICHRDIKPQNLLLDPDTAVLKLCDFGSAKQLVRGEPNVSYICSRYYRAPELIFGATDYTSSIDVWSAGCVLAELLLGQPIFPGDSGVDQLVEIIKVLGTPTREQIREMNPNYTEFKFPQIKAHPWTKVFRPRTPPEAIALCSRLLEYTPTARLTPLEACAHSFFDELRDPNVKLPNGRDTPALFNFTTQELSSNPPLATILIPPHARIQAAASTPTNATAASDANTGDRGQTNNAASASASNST
Procedure, shortened: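 Human GSK3β (5-10 mU) with 20 μM phospho GS2 peptide, [γ-^33P]ATP, 8 mM MOPS pH 7.0, 10 mM Mg acetate; 40 min at room temperature. Stopped with phosphoric acid; substrate phosphorylation read as filter-bound radioactivity by scintillation counting.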

CSK (h) = CSK (h) (Homo sapiens, UniProt P41240); assay: CSK human kinase assay (glass-fiber filter); conditions: test concentration of 10^−6M; for inhibition at 1 µM: read-out: C2 score (inhibition of CSK human)
CSK (h), sequence (P41240 whole entry): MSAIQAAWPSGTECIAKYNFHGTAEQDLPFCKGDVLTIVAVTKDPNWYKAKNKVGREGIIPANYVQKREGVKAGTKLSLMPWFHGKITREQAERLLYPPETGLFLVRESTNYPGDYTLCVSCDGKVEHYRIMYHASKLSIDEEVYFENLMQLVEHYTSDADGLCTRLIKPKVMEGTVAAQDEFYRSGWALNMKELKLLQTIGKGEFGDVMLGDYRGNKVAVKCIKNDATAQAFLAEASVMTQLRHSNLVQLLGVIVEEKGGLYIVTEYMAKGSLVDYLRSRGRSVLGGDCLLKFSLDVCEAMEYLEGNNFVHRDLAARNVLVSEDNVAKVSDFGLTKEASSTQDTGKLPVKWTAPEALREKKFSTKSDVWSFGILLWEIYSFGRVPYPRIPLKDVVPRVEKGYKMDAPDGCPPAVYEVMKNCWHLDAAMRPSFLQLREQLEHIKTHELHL
Description: In the glass-fiber filter technology the activity of the kinase of interest is measured using an appropriate substrate that is incubated with the aforementioned kinase protein in the presence of (^33P) radiolabeled ATP. (^33P) Phosphorylation of the substrate is subsequently measured as radioactivity bound on a glass fiber-filter.
All kinases are pre-diluted to a 10× working concentration prior to addition into the assay. The composition of the dilution buffer for each kinase is detailed below.
In a final reaction volume of 25 μl, CSK (h) (5-10 mU) is incubated with 50 mM Tris pH 7.5, 0.1 mM EGTA, 0.1 mM Na3VO4, 0.1% β-mercaptoethanol, 0.1 mg/ml poly(Glu, Tyr) 4:1, 10 mM MnCl2, 10 mM MgAcetate and [γ-^33P-ATP] (specific activity approx. 500 cpm/pmol, concentration as required). The reaction is initiated by the addition of the MgATP mix. After incubation for 40 minutes at room temperature, the reaction is stopped by the addition of 5 μl of a 3% phosphoric acid solution. 10 μl of the reaction is then spotted onto a Filtermat A and washed three times for 5 minutes in 75 mM phosphoric acid and once in methanol prior to drying and scintillation counting.

Molecule | C4 score (inhibition of EGFR human) (EGFR (h)) | C9 score (inhibition of Lck human) (Lck (h)) | C8 score (inhibition of GSK3β human) (GSK3B (h)) | C2 score (inhibition of CSK human) (CSK (h)) | inhibition at 1 µM (EGFR (h)) [%] | inhibition at 1 µM (Lck (h)) [%] | inhibition at 1 µM (GSK3B (h)) [%] | inhibition at 1 µM (CSK (h)) [%]
1H,7H-2,6: 12,8-dimetheno-14H-13,19,1,3,5,7-benzodioxatetraazacycloheneicosine, 22-bromo-15,16,17,18-tetrahydro-11-methoxy- [Compound 35] | 2 (Score 2=30-60% inhibition) | 2 (Score 2=30-60% inhibition) | 1 (Score 1=10-30% inhibition) | 1 (Score 1=10-30% inhibition) |  |  |  | 
12,8-metheno-6,2-nitrilo-7H-13,1,5,7,16,19-benzoxapentaazacyclodocosine-3-carbonitrile, 23-chloro-1,14,15,16,17,18,19,20-octahydro-11-methoxy-19-methyl-17-oxo- [Compound 32] | 4 (Score 4=>80% inhibition) | 4 (Score 4=>80% inhibition) | 4 (Score 4=>80% inhibition) | 1 (Score 1=10-30% inhibition) |  |  |  | 
N#Cc1cnc2nc1Nc1cccc(c1)OCC(=O)NCCCOc1cccc(c1)N2 [Compound 25, 14,21-dioxa-2,4,8,17,28-pentaazatetracyclo[20.3.1.1~3,7~.1~9,13~]octacosa-1(26),3,5,7(28),9,11,13(27),22,24-nonaene-6-carbonitrile, 16-oxo-] |  |  |  |  | 10 to 30 | 30 to 60 | 30 to 60 | 30 to 60
N#Cc1cnc2nc1Nc1cccc(c1)OCC(=O)NCCCCOc1cccc(c1)N2 [Compound 26, 14,22-dioxa-2,4,8,17,29-pentaazatetracyclo[21.3.1.1~3,7~.1~9,13~]nonacosa-1(27),3,5,7(29),9,11,13(28),23,25-nonaene-6-carbonitrile, 16-oxo-] |  |  |  |  | 10 to 30 | 10 to 30 | 10 to 30 | 10 to 30
N#Cc1cnc2nc1Nc1cccc(c1)OCCCNC(=O)COc1cccc(c1)N2 [Compound 28, 14,21-dioxa-2,4,8,18,28-pentaazatetracyclo[20.3.1.1~3,7~.1~9,13~]octacosa-1(26),3,5,7(28),9,11,13(27),22,24-nonaene-6-carbonitrile, 19-oxo-] |  |  |  |  |  | 30 to 60 | 60 to 80 | 10 to 30
COc1ccc2c(c1)OCCCCCCOc1ccc(Cl)cc1Nc1cc(ncn1)N2 [Compound 34, 11H-6,10-metheno-5H-dibenzo[b,k][1,13,4,6,8,10]dioxatetraazacyclononadecine, 13-chloro-17,18,19,20,21,22-hexahydro-2-methoxy-] |  |  |  |  | 30 to 60 | 10 to 30 |  | 10 to 30
COc1ccc2cc1OCCCCCCOc1ccc(Br)cc1Nc1cc(ncn1)N2 [Compound 36, 1H,7H-2,6: 12,8-dimetheno-13,20,1,3,5,7-benzodioxatetraazacyclodocosine, 23-bromo-14,15,16,17,18,19-hexahydro-11-methoxy-] | 4 (Score 4=>80% inhibition) | 2 (Score 2=30-60% inhibition) |  | 1 (Score 1=10-30% inhibition) |  |  |  | 
COc1ccc2cc1OCCCCCCCOc1ccc(Br)cc1Nc1cc(ncn1)N2 [Compound 37, 1H,7H-2,6: 12,8-dimetheno-14H-13,21,1,3,5,7-benzodioxatetraazacyclotricosine, 24-bromo-15,16,17,18,19,20-hexahydro-11-methoxy-] | 3 (Score 3=60-80% inhibition) | 2 (Score 2=30-60% inhibition) | 1 (Score 1=10-30% inhibition) | 1 (Score 1=10-30% inhibition) |  |  |  | 
COc1ccc2cc1OCCNC(=O)CNC(=O)Cc1ccc(Cl)cc1Nc1cc(ncn1)N2 [Compound 103, 1H,7H-6,2:12,8-dimetheno-13,1,3,5,7,16,19-benzoxahexaazacyclotricosine-17,20(14H)-dione, 24-chloro-15,16,18,19,21-pentahydro-11-methoxy-] |  |  |  |  | > 80 | > 80 | 10 to 30 | 30 to 60
COc1ccc2cc1OCCCNC(=O)C(C)(C)NC(=O)Cc1ccc(Cl)cc1Nc1cc(ncn1)N2 [Compound 105, 6,2:8,12-dimetheno-7H-13,1,3,5,7,17,20-benzoxahexaazacyclotetracosine-18,21-dione, 25-chloro-1,14,15,16,17,19,20,22-octahydro-11-methoxy-19,19-dimethyl-] |  |  |  |  | > 80 | > 80 | 10 to 30 | 30 to 60
CC1(C)NC(=O)Cc2ccc(Cl)cc2Nc2cc(ncn2)Nc2ccc(OCCCN3CCOCC3)c(c2)OCCNC1=O [Compound 106, 1H,7H-6,2:8,12-dimetheno-13,1,3,5,7,16,19-benzoxahexaazacyclotricosine-17,20(14H)-dione, 24-chloro-15,16,18,19,21-pentahydro-18,18-dimethyl-11-[3-(4-morpholinyl)propoxy]-] |  |  |  |  | > 80 | > 80 | 10 to 30 | 60 to 80
